Measurements taken from patent US6413974B1, “6,9,-disubstituted 2-[trans-(4-aminocyclohexyl) amino] purines” (Aventis Pharmaceuticals Inc., priority 1998, dated 2002).
Where “and” joins values, the source holds several entries; their conditions need not be identical. Equal entries are not always repeated. Structures can show the parent of a compound that is named as a salt. Where two headings read alike, the source gives them in different places.

How the values were obtained:
MDA-MB-435 = assay: In vitro tumor cell proliferation, MDA-MB-435; type: cell-based, human; details: read-out: In vitro Tumor Cell Proliferation (IC50, μM) Breast MDA-MB-435
In short: (§1)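 Viable (trypan blue-excluding) cells plated and left overnight at 37° C, then exposed to drug for 3 days, refed with fresh drug-containing medium for 4 more days. TCA-fixed cells stained with 0.4% sulforhodamine B; alternatively, CyQUANT read after 3 days of drug and freezing at −80° C.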

DU 145 = assay: In vitro tumor cell proliferation, DU 145; type: cell-based, human; details: read-out: In vitro Tumor Cell Proliferation (IC50, μM) Prostate DUI45
In short: as §1

HT-29 = assay: In vitro tumor cell proliferation, HT-29; type: cell-based, human; details: read-out: In vitro Tumor Cell Proliferation (IC50, μM) Colon HT-29 (converted)
In short: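 HT-29 human colon adenocarcinoma cells plated overnight at 37° C., then exposed to drug for 3 days, medium with fresh drug replaced for a further 4 days. Cells fixed with 10% TCA and stained with 0.4% sulforhodamine B; alternatively, CyQUANT read after 3 days of drug exposure.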

cdk2/cyclin E = biological target: T1, cdk2/cyclin E (Homo sapiens, UniProt P24941); assay: Cyclin-Dependent Kinase 2 Assay (cdk-2 inhibition); type: biochemical; details: GST-Rb substrate, 30 min at 30° C.
T1 construct: made in house; host or cells: insect cells (baculovirus co-infection)
In short: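 GST-Rb bound to glutathione-Sepharose beads (0.5 μg/well) as substrate in 50 mM HEPES pH 7.5, 10 mM MgCl2, 1 mM EGTA. Recombinant cdk2/cyclin E at 0.1 μg per 100 μl, 30 min at 30 °C. Reaction stopped by filtration, TNEN washes, scintillation counting.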

MDA-MB-231 = assay: In vitro tumor cell proliferation, MDA-MB-231; type: cell-based, human; details: read-out: In vitro Tumor Cell Proliferation (IC50, μM) Breast MDA-MB-231
In short: as §1

DMS-114 = assay: In vitro tumor cell proliferation, DMS-114; type: cell-based, human; details: read-out: In vitro Tumor Cell Proliferation (IC50, μM) Lung DMS-114
In short: as §1

Colo-205 = assay: In vitro tumor cell proliferation, Colo-205; type: cell-based, human; details: read-out: In vitro Tumor Cell Proliferation (IC50, μM) Colon Colo-205
In short: as §1

PC-3 = assay: In vitro tumor cell proliferation, PC-3; type: cell-based, human; details: read-out: In vitro Tumor Cell Proliferation (IC50, μM) Prostate PC-3
In short: as §1

A549 = assay: In vitro tumor cell proliferation, A549; type: cell-based, human; details: read-out: In vitro Tumor Cell Proliferation (IC50, μM) Lung A549
In short: as §1

cdk4/cyclin D1 = biological target: T2, cdk4/cyclin D1 (Homo sapiens, UniProt P11802); assay: Cyclin-dependent kinase 4 Assay; type: biochemical; details: cdk4/cyclin D1, GST-Rb substrate, 10 μM ATP, 30 min at 37° C.; read-out: CDK4 Inhibition IC50
T2 construct: made in house; host or cells: Sf9 insect cells (Bac-to-Bac baculovirus, pFastBac)
In short: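 Insect-cell lysate of coexpressed human cdk4/cyclin D1 (0.1 μg) phosphorylated bead-bound GST-Rb (0.5 μg) in 50 mM HEPES pH 7.5, 10 mM MgCl2, 1 mM EGTA for 30 min at 37 °C. Filters were washed with TNEN and scintillation-counted; IC50 values derived.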

[1] = Homo sapiens, MDA-MB-435, values marked * (mark not explained)
[2] = Homo sapiens, DU-145, values marked * (mark not explained)
[3] = values marked * (mark not explained), dihydrochloride
[4] = Homo sapiens, HT-29, values marked * (mark not explained)
[5] = Homo sapiens, MDA-MB-231, values marked * (mark not explained)
[6] = Homo sapiens, DMS-114, values marked * (mark not explained)
[7] = Homo sapiens, COLO 205, values marked * (mark not explained)
[8] = Homo sapiens, PC-3, values marked * (mark not explained)
[9] = Homo sapiens, A549, values marked * (mark not explained)

T2 sequence (P11802 whole entry): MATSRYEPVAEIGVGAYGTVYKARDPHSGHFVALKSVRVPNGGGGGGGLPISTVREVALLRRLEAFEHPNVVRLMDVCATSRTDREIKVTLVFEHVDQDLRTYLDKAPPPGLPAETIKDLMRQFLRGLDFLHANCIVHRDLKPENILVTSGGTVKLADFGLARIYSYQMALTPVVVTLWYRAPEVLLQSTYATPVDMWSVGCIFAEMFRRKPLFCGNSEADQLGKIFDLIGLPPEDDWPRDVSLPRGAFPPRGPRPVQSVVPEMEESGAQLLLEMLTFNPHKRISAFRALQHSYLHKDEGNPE
T2 sequence (P24385 whole entry partner): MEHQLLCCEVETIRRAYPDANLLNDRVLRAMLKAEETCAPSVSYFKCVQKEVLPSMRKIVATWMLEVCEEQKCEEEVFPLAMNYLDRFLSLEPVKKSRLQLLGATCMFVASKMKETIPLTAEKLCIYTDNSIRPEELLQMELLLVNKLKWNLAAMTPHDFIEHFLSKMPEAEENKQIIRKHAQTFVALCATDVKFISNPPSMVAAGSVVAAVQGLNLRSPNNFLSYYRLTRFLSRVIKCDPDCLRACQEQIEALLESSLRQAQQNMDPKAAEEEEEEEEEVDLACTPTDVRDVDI

Row | SMILES | IC50 (MDA-MB-435; [1]) [µM] | IC50 (DU 145; [2]) [µM] | IC50 (DU 145; [3]) [µM] | IC50 (HT-29; [4]) [µM] | IC50 (HT-29; [3]) [µM] | IC50 (cdk2/cyclin E) | IC50 (MDA-MB-231; [5]) [µM] | IC50 (MDA-MB-231; [3]) [µM] | IC50 (DMS-114; [6]) [µM] | IC50 (DMS-114; [3]) [µM] | IC50 (Colo-205; [7]) [µM] | IC50 (Colo-205; [3]) [µM] | IC50 (PC-3; [8]) [µM] | IC50 (PC-3; [3]) [µM] | IC50 (A549; [9]) [µM] | IC50 (A549; [3]) [µM] | IC50 (cdk4/cyclin D1) | IC50 (MDA-MB-435; [3]) [µM]
1 | N[C@H]1CC[C@H](Nc2nc(NCCCCCO)c3ncn(C4CCCC4)c3n2)CC1 [Example 25, 2-[Trans-(4-aminocyclohexyl)amino]-6-[5-(hydroxy)pentylamino]-9-cyclopentylpurine dihydrochloride] | 6 | 3.9 | 4.6 | 5.6 | 6.2 | 0.021 µM | 3.4 | 5.4 | 6.6 | 4.5 | 2.4 | 2.3 | 1.8 | 2.3 | 6.1 | 5.5 | 0.11 µM | 
2 | N[C@H]1CC[C@H](Nc2nc(NCc3cccs3)c3ncn(C4CCCC4)c3n2)CC1 [Example 17, 2-[Trans-(4-aminocyclohexyl)amino]-6-(2-thiophenemethylamino)-9-cyclopentylpurine dihydrochloride] | 3.2 | 1.6 |  | 2.4 | 2.6 | 0.069 µM and 0.046 µM | 2.4 | 3 | 1.9 | 1.7 | 2.2 | 3 | 1.7 |  | 1.8 | 1.6 | 0.3 µM and 0.5 µM | 3.7
3 | N[C@H]1CC[C@H](Nc2nc(NCCc3ccc(O)cc3)c3ncn(C4CCCC4)c3n2)CC1 [Example 55, 2-[Trans-(4-aminocyclohexyl)amino]-6-[(4-hydroxyphenyl)ethylamino]-9-cyclopentylpurine. dihydrochloride] | 6.7 | 6.7 | 7.2 | 7 | 6.1 | 0.089 µM | 5.2 | 5.6 | 7 | 4.8 | 4.3 | 4.2 | 4.2 | 4 | 7.3 | 6.4 | 2.1 µM and 1.1 µM and 0.7 µM | 7.2
4 | CCCCCCNc1nc(N[C@H]2CC[C@H](N)CC2)nc2c1ncn2C1CCCC1 [Example 41, 2-[Trans-(4-aminocyclohexyl)amino]-6-(hexylamino)-9-cyclopentylpurine dihydrochloride] | 2.6 | 1.1 |  | 1.6 |  | 0.2 µM | 1.7 |  | 0.9 |  | 1.7 |  | 1.5 |  | 1.1 |  | 0.82 µM and 1.9 µM | 
5 | N[C@H]1CC[C@H](Nc2nc(NCc3ccncc3)c3ncn(C4CCCC4)c3n2)CC1 [Example 8, 2-[Trans-(4-aminocyclohexyl)amino]-6-[(4-pyridyl)methylamino]-9-cyclopentylpurine dihydrochloride] | 10 | 5.8 | 6.5 | 7.6 | 11 | 0.11 µM | 5.3 | 8.1 | 9.9 | 7.4 | 4.6 | 4.1 | 4.6 | 5.4 | 7.7 | 5.9 | 0.7 µM and 0.8 µM | 

The next compounds have a lower IC50 (MDA-MB-435; [1]) than those just listed; values first:

Row | IC50 (MDA-MB-435; [1]) [µM] | IC50 (DU 145; [2]) [µM] | IC50 (DU 145; [3]) [µM] | IC50 (HT-29; [4]) [µM] | IC50 (HT-29; [3]) [µM] | IC50 (cdk2/cyclin E) | IC50 (MDA-MB-231; [5]) [µM] | IC50 (MDA-MB-231; [3]) [µM] | IC50 (DMS-114; [6]) [µM] | IC50 (DMS-114; [3]) [µM] | IC50 (Colo-205; [7]) [µM] | IC50 (Colo-205; [3]) [µM] | IC50 (PC-3; [8]) [µM] | IC50 (PC-3; [3]) [µM] | IC50 (A549; [9]) [µM] | IC50 (A549; [3]) [µM] | IC50 (cdk4/cyclin D1) | IC50 (MDA-MB-435; [3]) [µM] | SMILES
6 | 2.3 | 2.4 | 1.9 | 1.9 | 1.7 | 0.33 µM and 0.31 µM and 0.46 µM | 2.7 | 1.9 | 1.1 | 0.95 | 1.9 | 1.4 | 1.7 | 1.8 | 1.7 | 1 | 2.4 µM | 1.8 | CCCCCCCCNc1nc(N[C@H]2CC[C@H](N)CC2)nc2c1ncn2C1CCCC1 [Example 20, 2-[Trans-(4-aminocyclohexyl)amino]-6-(octylamino)-9-cyclopentylpurine dihydrochloride]
7 | 1.6 | 1.4 |  | 1 |  | 0.085 µM | 1 |  | 0.78 | 0.61 | 0.63 | 0.58 | 0.83 | 0.8 | 0.68 | 0.63 | 2 µM and 1.2 µM |  | CC(CCCC(C)(C)O)Nc1nc(N[C@H]2CC[C@H](N)CC2)nc2c1ncn2C1CCCC1 (relative stereo) [Example 54, 2-[Trans-(4-aminocyclohexyl)amino]-6-[(5-hydroxy-1,5-dimethylhexyl)amino]-9-cyclopentylpurine dihydrochloride]
8 | 1.3 | 0.4 | 0.7 | 0.7 | 0.8 | 0.039 µM and 0.091 µM | 0.8 | 0.9 | 0.7 | 0.6 | 0.51 | 0.78 | 0.6 | 0.8 | 0.5 |  | 1 µM | 1.2 | N[C@H]1CC[C@H](Nc2nc(NCCCCc3ccccc3)c3ncn(C4CCCC4)c3n2)CC1 [Example 21, 2-[Trans-(4-aminocyclohexyl)amino]-6-(4-phenylbutylamino)-9-cyclopentylpurine dihydrochloride]
9 | 0.85 | 0.5 | 0.6 | 0.69 | 0.65 | 0.009 µM and 0.011 µM | 0.8 | 0.6 | 0.44 | 0.53 | 0.58 | 0.4 | 0.52 | 0.47 | 0.63 | 0.47 | 0.25 µM and 0.37 µM and 0.16 µM |  | CCCNc1nc(N[C@H]2CC[C@H](N)CC2)nc2c1ncn2C1CCCC1 [Example 44, 2-[Trans-(4-aminocyclohexyl)amino]-6-(propylamino)-9-cyclopentylpurine dihydrochloride]
